According to patent publication US7402610B2, “Carbonyl compound containing long-chain branched alkyl group” (Idemitsu Kosan Co., Ltd., priority 2004, dated 2008):

Legend:
Format in all cases: physicochemical
[1] = Loss on heat (plasticizer evaluation), JIS K6751-4; settings: heating at 125° C. for three hours
Protocol: As the plasticizer evaluation, loss on heat was evaluated. In accordance with JIS K6751-4, the decrease in amount after heating at 125° C. for three hours was used as the heating loss.

[2] = Oxidation stability test, JIS K2514, kinematic viscosity before and after heating; settings: for Change in kinematic viscosity (at 40° C.) / Change in kinematic viscosity (at 100° C.): after/before heating at 140° C. for 24 hours
Protocol: The oxidation stability of the above synthesized triester was tested and the viscosity before and after testing was measured. The oxidation stability test was conducted in accordance with JIS K2514, wherein the kinematic viscosity was measured at 40° C. and 100° C. after heating for 24 hours at 140° C. in the presence of copper and steel catalysts. The compounds showing a small change (increase) in kinematic viscosity were regarded as excelling in oxidation stability.

[3] = Low temperature fluidity on cooling; settings: cooled to −20° C.
Pour point, JIS K2269 = experiment: Pour point, JIS K2269
Protocol: The pour point of 3-octyl-tridecanoic acid was measured in accordance with JIS K2269. The pour point was determined to be −37° C. On the other hand, the pour point of a similar compound isostearic acid (2-n-heptylundecanoic acid) was −20° C. (“14303 Chemical Products”, The Chemical Daily Co., Ltd.). Another similar compound 2-octyldodecanoic acid was a solid having a melting point of 35° C.
The pour point which indicates the characteristics of the ester of the invention was measured in accordance with JIS K2269.

[4] = after heating at 140° C. for 24 hours, copper and steel catalysts

CCCCCCCC/C=C\CCCCCCCC(=O)OCCCCCCCC [Comparative Example 4, octyl oleate, reference compound]
Decrease in amount after heating (%) [1]: 0.30% | Kinematic viscosity at 40° C. [2, 4]: 19.89 mm^2/s | Change in kinematic viscosity (at 40° C.) [2]: 1.29 | Kinematic viscosity at 40° C. ([2]; before heating): 15.33 mm^2/s

CCCCCCCCCCC(CCCCCCCC)CC(=O)OC (centres unmarked) [Example 1, methyl 3-octyl-tridecanoate]
Fluidity when cooled [3]: did not decrease

CCCCCCCCCCC(CCCCCCCC)CC(=O)O (centres unmarked) [Example 2, 3-octyl-tridecanoic acid]
Fluidity when cooled [3]: did not decrease | Pour point (Pour point, JIS K2269): −37 °C

CCCCCCCCCCC(CC=O)CCCCCCCC (centres unmarked) [Example 3, 3-octyl-tridecanal]
Fluidity when cooled [3]: has the fluidity

CCCCCCCCCCC(CCCCCCCC)CC(=O)OCCCCCCCC (centres unmarked) [Example 7, octyl 3-octyl-tridecanoate]
Decrease in amount after heating (%) [1]: 0.10% | Kinematic viscosity at 40° C. [2, 4]: 21.74 mm^2/s | Change in kinematic viscosity (at 40° C.) [2]: 1.04 | Kinematic viscosity at 40° C. ([2]; before heating): 20.08 mm^2/s

trimethylolpropane tri(3-octyl-tridecanoate) [Example 4]
Pour point (Pour point, JIS K2269): −50 or less ° C. | Kinematic viscosity at 40° C. [2, 4]: 67.28 mm^2/s | Kinematic viscosity at 100° C. [2, 4]: 10.24 mm^2/s | Change in kinematic viscosity (at 40° C.) [2]: 1.07 | Change in kinematic viscosity (at 100° C.) [2]: 1.03 | Kinematic viscosity at 40° C. ([2]; before heating): 62.76 mm^2/s | Kinematic viscosity at 100° C. ([2]; before heating): 9.95 mm^2/s

trimethylolpropane trioleate [Comparative Example 2, reference compound]
Pour point (Pour point, JIS K2269): −47.5 °C | Kinematic viscosity at 40° C. [2, 4]: 60.91 mm^2/s | Kinematic viscosity at 100° C. [2, 4]: 11.24 mm^2/s | Change in kinematic viscosity (at 40° C.) [2]: 1.27 | Change in kinematic viscosity (at 100° C.) [2]: 1.16 | Kinematic viscosity at 40° C. ([2]; before heating): 47.96 mm^2/s | Kinematic viscosity at 100° C. ([2]; before heating): 9.66 mm^2/s
